Drawing on patent US8178690B2, “Compounds and methods for inhibiting the interaction of BCL proteins with binding partners” (Infinity Pharmaceuticals, Inc., priority 2006, dated 2012), this text covers Ki for 31 compounds.

One assay concerns the target Bcl-2 (Homo sapiens, UniProt P10415). The assay is described as follows: Bcl-2 binding affinity analysis (fluorescence polarization binding assay). To be noted: read-out: BcI2 (Ki, Bcl-2 binding affinity). The source says:
(§1) Bcl-2 and Bcl-xL binding may be determined using a variety of known methods. One such assay is a sensitive and quantitative in vitro binding assay using fluorescence polarization (FP) described by Wang, J.-L.; Zhang, Z-J.; Choksi, S.; Sjam. S.; Lu, Z.; Croce, C. M.; Alnemri, E. S.; Komgold, R.; Huang, Z. Cell permeable Bcl-2 binding peptides: a chemical approach to apoptosis induction in tumor cells. Cancer Res. 2000, 60, 1498-1502).
(§2) Bcl-2 and Bcl-xL binding affinity analysis data is presented below for various compounds of the invention.

The target in a further assay is Bcl-xL (Homo sapiens, UniProt Q07817). The assay is described as follows: Bcl-xL binding affinity analysis (fluorescence polarization binding assay). Particulars: read-out: BcI-XI (Ki, Bcl-xL binding affinity).
Chain of Bcl-xL (Q07817 whole entry): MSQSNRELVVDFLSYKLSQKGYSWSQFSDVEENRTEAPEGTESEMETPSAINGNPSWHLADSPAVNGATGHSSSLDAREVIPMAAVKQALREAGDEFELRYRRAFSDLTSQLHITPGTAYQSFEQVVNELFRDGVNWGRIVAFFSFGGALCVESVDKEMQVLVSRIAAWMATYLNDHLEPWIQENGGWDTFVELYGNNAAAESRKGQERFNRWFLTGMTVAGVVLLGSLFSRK
Excerpt: as §1, §2

Some results are limits rather than exact numbers.

Chain of Bcl-2 (P10415 whole entry): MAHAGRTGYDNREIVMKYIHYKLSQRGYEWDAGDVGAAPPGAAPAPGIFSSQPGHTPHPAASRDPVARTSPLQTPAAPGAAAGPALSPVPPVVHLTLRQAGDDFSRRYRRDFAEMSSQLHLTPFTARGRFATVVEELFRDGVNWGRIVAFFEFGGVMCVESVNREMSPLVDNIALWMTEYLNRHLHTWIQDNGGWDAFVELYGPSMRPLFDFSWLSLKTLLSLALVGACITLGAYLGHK

Turning to `COc1c(CN2O[C@@H](CO)[C@@H]([C@H](C)O)[C@H]2C(=O)N[C@H]2C[C@H]3C[C@@H]([C@@H]2C)C3(C)C)cccc1-c1cc(C(=O)N[C@@H](CN(C)C)CS(=O)(=O)C(C)(C)C)cc(N(C)C)c1` [Compound 170], the Ki lay in the range of 1 to 5 nM at Bcl-2 and 1000 to 5000 nM on Bcl-xL.

On to `CNC(=O)c1cc(-c2cccc(CN3O[C@@H](CN)[C@@H]([C@H](C)OC(=O)NCCN(C)C)[C@H]3C(=O)N[C@H]3C[C@H]4C[C@@H]([C@@H]3C)C4(C)C)c2OC)cc(N(C)C)c1` [Compound 92], for which the figures for the Ki at Bcl-2 and on Bcl-xL were over 9 nM and over 10000 nM, respectively.

For `COc1c(CN2O[C@@H](CO)[C@@H]([C@H](C)O)[C@H]2C(=O)N[C@H]2C[C@H]3CC([C@@H]2C)C3(C)C)ccc(Cl)c1-c1cc(C(=O)N[C@@H](CC(C)C)CN(C)C)cc(N(C)C)c1` [Compound 183], the inhibition constant Ki is 1 to 5 nM on Bcl-2 and 1000 to 5000 nM on Bcl-xL.

For the compound `COc1c(CN2O[C@@H](CO)[C@@H]([C@H](C)O)[C@H]2C(=O)N[C@H]2C[C@H]3C[C@@H]([C@@H]2C)C3(C)C)cccc1-c1cc(C(=O)N(C)[C@@H](Cc2ccccc2)CN(C)C)cc(N(C)C)c1` [Compound 311], the Ki on Bcl-2 was under 1 nM; on Bcl-xL, under 1000 nM.

Consider `COc1c(CN2O[C@@H](CN=C(N(C)C)N(C)C)[C@@H]([C@H](C)O)[C@H]2C(=O)N[C@H]2C[C@H]3C[C@@H]([C@@H]2C)C3(C)C)cccc1-c1cc(C(=O)NCCc2ccccc2)cc(N(C)C)c1` [Compound 86], for which the Ki at Bcl-2 is over 9 nM; at Bcl-xL, over 10000 nM.

`COc1c(CN2O[C@@H](CO)[C@@H]([C@H](C)O)[C@H]2C(=O)N[C@H]2C[C@H]3C[C@@H]([C@@H]2C)C3(C)C)cccc1-c1cc(NC(C)=O)cc(C(=O)N[C@@H](CC(C)C)CN(C)C)c1` [Compound 262]: the results for the Ki at Bcl-2 and at Bcl-xL were 5 to 9 nM and 1000 to 5000 nM, respectively.

As for `COc1c(CN2O[C@@H](CO)[C@@H]([C@H](C)O)[C@H]2C(=O)N[C@H]2C[C@H]3C[C@@H]([C@@H]2C)C3(C)C)cccc1-c1cc(C(=O)N[C@H](CN(C)C)[C@H](O)c2ccccc2)cc(N(C)C)c1` [Compound 136], the Ki was under 1 nM at Bcl-2 and under 1000 nM at Bcl-xL.

Turning to `CNC(=O)c1cc(-c2cccc(CN3O[C@@H](CN)[C@@H]([C@H](C)OC(=O)NCCc4ccccc4)[C@H]3C(=O)N[C@H]3C[C@H]4C[C@@H]([C@@H]3C)C4(C)C)c2OC)cc(N(C)C)c1` [Compound 91], the Ki on Bcl-2 was over 9 nM; at Bcl-xL it was over 10000 nM.

Consider `CNC(=O)c1cc(-c2cccc(CN3O[C@@H](CNC(C)=O)[C@@H]([C@H](C)O)[C@H]3C(=O)N[C@H]3C[C@H]4C[C@@H]([C@@H]3C)C4(C)C)c2OC)cc(N(C)C)c1` [Compound 77], for which the Ki at Bcl-2 was 5 to 9 nM; on Bcl-xL, 1000 to 5000 nM.

Regarding `COc1c(CN2O[C@@H](CO)[C@@H]([C@H](C)O)[C@H]2C(=O)N[C@H]2C[C@H]3C[C@@H]([C@@H]2C)C3(C)C)cccc1-c1cc(C(=O)N[C@@H](CC(C)C)CN(C)C)cc(N(C)CC(C)C)c1` [Compound 271], the Ki is under 1 nM at Bcl-2 and under 1000 nM at Bcl-xL.

As for `COc1c(CN2O[C@@H](CN)[C@@H]([C@H](C)O)[C@H]2C(=O)N[C@H]2C[C@H]3C[C@@H]([C@@H]2C)C3(C)C)cccc1-c1cc(C(=O)O)cc(N(C)C)c1` [Compound 71], the Ki on Bcl-2 was over 9 nM; on Bcl-xL, 1000 to 5000 nM.

For the compound `COc1c(CN2O[C@@H](CO)[C@@H]([C@H](C)O)[C@H]2C(=O)N[C@H]2C[C@H]3C[C@@H]([C@@H]2C)C3(C)C)cccc1-c1cc(C(=O)N[C@H](Cc2ccccc2)CN(C)C)cc(N(C)C)c1` [Compound 113], the results for the Ki on Bcl-2 and on Bcl-xL were under 1 nM and under 1000 nM, respectively.

Turning to `COc1c(CN2O[C@@H](CN)[C@@H]([C@H](C)O)[C@H]2C(=O)N[C@H]2C[C@H]3C[C@@H]([C@@H]2C)C3(C)C)cccc1-c1cc(C(=O)N[C@H](CN(C)C)[C@H](O)c2ccccc2)cc(N(C)C)c1` [Compound 272], the Ki was under 1 nM on Bcl-2 and 1000 to 5000 nM on Bcl-xL.

Regarding `COc1c(CN2O[C@@H](CN)[C@@H]([C@H](C)O)[C@H]2C(=O)N[C@H]2C[C@H]3C[C@@H]([C@@H]2C)C3(C)C)cccc1-c1cc(C(=O)N[C@@H]2CCN(C)C2)cc(N(C)C)c1` [Compound 213], the Ki at Bcl-2 is under 1 nM; at Bcl-xL, over 10000 nM.

For `COc1c(CN2O[C@@H](CN)[C@@H]([C@H](C)O)[C@H]2C(=O)N[C@H]2C[C@H]3C[C@@H]([C@@H]2C)C3(C)C)cccc1-c1cc(C(=O)N[C@@H](Cc2ccccc2)CN(C)C)cc(N(C)C)c1` [Compound 54], the values for the Ki at Bcl-2 and on Bcl-xL were 1 to 5 nM and over 10000 nM, respectively.

For the compound `COc1c(CN2O[C@@H](CO)[C@@H]([C@H](C)O)[C@H]2C(=O)N[C@H]2C[C@H]3C[C@@H]([C@@H]2C)C3(C)C)cccc1-c1cc(C(=O)N[C@@H](Cc2ccccc2)CN(C)C)cc(N(C)C)c1` [Compound 37], the results for the inhibitory constant (Ki) at Bcl-2 and at Bcl-xL were under 1 nM and under 1000 nM, respectively.

On to `COc1c(-c2cc(C(=O)N[C@H](CN(C)C)[C@@H](NS(C)(=O)=O)c3ccccc3)cc(N(C)C)c2)ccc(F)c1CN1O[C@@H](CO)[C@@H]([C@H](C)O)[C@H]1C(=O)N[C@H]1C[C@H]2C[C@@H]([C@@H]1C)C2(C)C` [Compound 151], for which the Ki on Bcl-2 was under 1 nM; on Bcl-xL, under 1000 nM.

As to `COc1c(CN2O[C@@H](CO)[C@@H]([C@H](C)O)[C@H]2C(=O)N[C@H]2C[C@H]3C[C@@H]([C@@H]2C)C3(C)C)cccc1-c1cc(C(=O)N[C@@H](CC(C)C)C(N)=O)cc(N(C)C)c1` [Compound 260], the Ki is 1 to 5 nM on Bcl-2 and under 1000 nM on Bcl-xL.

For `COc1c(CN2O[C@@H](CNC(=O)C(F)(F)F)[C@@H]([C@H](C)O)[C@H]2C(=O)N[C@H]2C[C@H]3C[C@@H]([C@@H]2C)C3(C)C)cccc1-c1cc(C(=O)NCCc2ccccc2)cc(N(C)C)c1` [Compound 74], the figures for the Ki at Bcl-2 and at Bcl-xL were over 9 nM and 5000 to 10000 nM, respectively.

Turning to `COc1c(CN2O[C@@H](CNC(=O)CCC(=O)O)[C@@H]([C@H](C)O)[C@H]2C(=O)N[C@H]2C[C@H]3C[C@@H]([C@@H]2C)C3(C)C)cccc1-c1cc(C(=O)N[C@H](CN(C)C)CC(C)(C)C)cc(N(C)C)c1` [Compound 114], the Ki on Bcl-2 was under 1 nM; at Bcl-xL, under 1000 nM.

With `CCNc1cc(C(=O)N[C@@H](CC(C)C)CN(C)C)cc(-c2cccc(CN3O[C@@H](CO)[C@@H]([C@H](C)O)[C@H]3C(=O)N[C@H]3C[C@H]4C[C@@H]([C@@H]3C)C4(C)C)c2OC)c1` [Compound 269], the Ki was under 1 nM on Bcl-2 and under 1000 nM on Bcl-xL.

As for `COc1c(CN2O[C@@H](CO)[C@@H]([C@H](C)O)[C@H]2C(=O)N[C@H]2C[C@H]3C[C@@H]([C@@H]2C)C3(C)C)cccc1-c1cc(C(=O)N[C@@H](Cc2cccc(N)c2)CN(C)C)cc(N(C)C)c1` [Compound 206], the values for the Ki at Bcl-2 and on Bcl-xL were under 1 nM and under 1000 nM, respectively.

With `COc1c(CN2O[C@@H](CO)[C@@H]([C@H](C)O)[C@H]2C(=O)N[C@H]2C[C@H]3C[C@@H]([C@@H]2C)C3(C)C)cccc1-c1cc(C(=O)N[C@@H](Cc2ccccc2)CN(C)C)cc(N(C)CC(N)=O)c1` [Compound 310], the figures for the Ki on Bcl-2 and at Bcl-xL were under 1 nM and under 1000 nM, respectively.

For `COc1c(CN2O[C@@H](CN)[C@@H]([C@H](C)O)[C@H]2C(=O)N[C@H]2C[C@H]3C[C@@H]([C@@H]2C)C3(C)C)cccc1-c1cc(C(=O)NCCc2ccccn2)cc(N(C)C)c1` [Compound 64], the Ki was under 1 nM at Bcl-2 and over 10000 nM at Bcl-xL.

For `COc1c(CN2O[C@@H](CO)[C@@H]([C@H](C)O)[C@H]2C(=O)N[C@H]2C[C@H]3C[C@@H]([C@@H]2C)C3(C)C)cccc1-c1cc2c(c(C(=O)N[C@H](CN(C)C)CC(C)(C)C)c1)OCC2` [Compound 256], the results for the Ki at Bcl-2 and on Bcl-xL were under 1 nM and under 1000 nM, respectively.

As for `COc1c(CN2O[C@@H](CO)[C@@H]([C@H](C)O)[C@H]2C(=O)N[C@H]2C[C@H]3C[C@@H]([C@@H]2C)C3(C)C)cccc1-c1cc(C(=O)N[C@@H](Cc2ccccc2)CN(C)C)cc(N(C)CC(=O)O)c1` [Compound 306], the Ki on Bcl-2 was under 1 nM; at Bcl-xL, under 1000 nM.

On to `COc1c(CN2O[C@@H](CO)[C@@H]([C@H](C)O)[C@H]2C(=O)N[C@H]2C[C@H]3C[C@@H]([C@@H]2C)C3(C)C)cccc1-c1cc(C(=O)N[C@@H](CC(C)C)CN(C)C)cc(N2CCCCC2)c1` [Compound 268], for which the Ki lay in the range of 1 to 5 nM on Bcl-2 and 1000 to 5000 nM at Bcl-xL.

With `COc1c(CN2O[C@@H](CO)[C@@H]([C@H](C)O)[C@H]2C(=O)N[C@H]2C[C@H]3C[C@@H]([C@@H]2C)C3(C)C)cccc1-c1cc(C(=O)N2CCN(C)C[C@@H]2Cc2ccccc2)cc(N(C)C)c1` [Compound 193], the figures for the Ki at Bcl-2 and on Bcl-xL were 1 to 5 nM and 1000 to 5000 nM, respectively.

In the case of `CCOc1c(CN2O[C@@H](CO)[C@@H]([C@H](C)O)[C@H]2C(=O)N[C@H]2C[C@H]3C[C@@H]([C@@H]2C)C3(C)C)cccc1-c1cc(C(=O)N[C@@H](Cc2cccs2)CN(C)C)cc(N(C)C)c1` [Compound 25], the Ki on Bcl-2 is under 1 nM; on Bcl-xL, under 1000 nM.

With `CNC(=O)c1cc(-c2cccc(CN3O[C@@H](CNC(C)C)[C@@H]([C@H](C)O)[C@H]3C(=O)N[C@H]3C[C@H]4C[C@@H]([C@@H]3C)C4(C)C)c2OC)cc(N(C)C)c1` [Compound 97], the Ki on Bcl-2 is over 9 nM; at Bcl-xL, over 10000 nM.

Consider `C[C@@H]1[C@@H](NC(=O)[C@@H]2[C@H]([C@H](C)O)[C@H](CO)ON2Cc2cccc(-c3cc(C(=O)N[C@@H](Cc4ccccc4)CN(C)C)cc(N(C)C)c3)c2OCC2CC2)C[C@H]2C[C@@H]1C2(C)C` [Compound 26], for which the Ki is under 1 nM on Bcl-2 and under 1000 nM on Bcl-xL.
